Measured values reported in PubChem BioAssay (NCI).
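Following 48 hours of exposure in 96-well plates, responses at five concentrations were used to interpolate endpoints linearly. TGI is the concentration that stops growth completely.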

Tests used:
Experiment in all cases: NCI tumour cell line growth inhibition, 48 h
COLO 205 colon = tested on: COLO 205 colon
MOLT-4 leukemia = tested on: MOLT-4 leukemia
DU-145 prostate = tested on: DU-145 prostate
SK-OV-3 ovarian = tested on: SK-OV-3 ovarian
OVCAR-5 ovarian = tested on: OVCAR-5 ovarian
HCT-15 colon = tested on: HCT-15 colon
LOX IMVI melanoma = tested on: LOX IMVI melanoma
SK-MEL-28 melanoma = tested on: SK-MEL-28 melanoma
HOP-62 NSCLC = tested on: HOP-62 NSCLC
NCI-H226 lung = tested on: NCI-H226 lung

Structure (SMILES) | TGI (COLO 205 colon) | TGI (MOLT-4 leukemia) | TGI (DU-145 prostate) | TGI (SK-OV-3 ovarian) | TGI (OVCAR-5 ovarian) | TGI (HCT-15 colon) | TGI (LOX IMVI melanoma) | TGI (SK-MEL-28 melanoma) | TGI (HOP-62 NSCLC) | TGI (NCI-H226 lung)
Cc1ccc2c(=O)cc(-c3cc(C)sc3C)[nH]c2n1 | 7.52 µM | > 77.6 µM | > 94.5 µM | > 82.7 µM | > 100 µM | > 100 µM | > 58.8 µM | > 100 µM | > 100 µM | 7.62 µM
COC(=O)C1=C(OC)C(=P2(c3ccccc3)CC(c3ccccc3)=C2c2ccccc2)C(C(=O)OC)=C1C(=O)OC (stereo not given) | > 50.5 µM | 13.8 µM | > 100 µM | > 100 µM | > 100 µM | > 62.7 µM | > 100 µM | > 100 µM | > 100 µM | > 100 µM
CCOc1ccc(NC(=O)C(=O)C(/C(=N/N)C(=O)OC)c2nc3ccc([N+](=O)[O-])cc3[nH]c2=O)cc1 (stereo not given) | > 100 µM | > 100 µM | > 100 µM | > 100 µM | > 100 µM | > 100 µM | > 100 µM | > 100 µM | > 100 µM | > 100 µM
C=C1CC[C@@H]2[C@](C)(COC(=O)CCC(=O)OC)CCC[C@@]2(C)[C@@H]1CCC1=CC(=O)OC1 | > 100 µM | 47.7 µM | > 100 µM | > 100 µM | > 100 µM | > 100 µM | > 100 µM | > 100 µM | > 100 µM | > 100 µM
COC(=O)C1CC2CC1C1C2SC(F)(F)C1(F)F (stereo not given) | > 100 µM | > 100 µM | > 100 µM | > 100 µM | > 100 µM | > 100 µM | > 100 µM | > 100 µM | > 100 µM | > 100 µM
CCc1nc(N)nc(N)c1-c1ccc(N2CCOCC2)c(N=[N+]=[N-])c1 | > 100 µM | > 100 µM | > 100 µM | > 100 µM | > 100 µM | > 100 µM | > 100 µM | > 100 µM | > 100 µM | > 100 µM
N#CCc1nc(-c2cc3ccccc3oc2=O)cs1 | > 100 µM | 63.1 µM | > 100 µM | > 100 µM | > 100 µM | > 100 µM | > 100 µM | > 100 µM | > 100 µM | > 100 µM
COc1ccc(NC(=S)c2ccc([N+](=O)[O-])o2)cc1 | 2.75 µM | 13.9 µM | 10.2 µM | 25.7 µM | 9.53 µM | 3.56 µM | 4.33 µM | 12.5 µM | 8.26 µM | 8.75 µM
Cc1cn([C@H]2C[C@@H](N3C(=O)c4ccccc4C3=O)[C@@H](CO[Si](C)(C)C(C)(C)C)O2)c(=O)[nH]c1=O | > 100 µM | > 100 µM | > 100 µM | > 100 µM | > 100 µM | > 100 µM | > 100 µM | > 100 µM | 61.4 µM | > 100 µM
NCCc1ccc(S(=O)(=O)O)cc1[N+](=O)[O-] | > 100 µM | > 32.4 µM | > 100 µM | > 100 µM | > 100 µM | > 100 µM | > 100 µM | > 100 µM | > 100 µM | > 100 µM
Cc1nc2ccc(S(=O)(=O)O)cc2c(=O)n1-c1ccc(C(=O)NN2C(=O)C(Cl)C2c2cccs2)cc1 (stereo not given) | > 100 µM | > 100 µM | > 100 µM | > 100 µM | > 100 µM | > 100 µM | > 100 µM | > 100 µM | 60.1 µM | > 100 µM
C(=C\c1cc[n+](CCc2ccccc2)cc1)/c1ccccc1 | 25.6 µM | 69.4 µM | > 100 µM | > 100 µM | 88.5 µM | > 100 µM | 37 µM | 26.8 µM | 40.4 µM | 48.9 µM
N/C(=N\N=C\c1nc2ccccc2o1)c1cnccn1 | > 100 µM | > 100 µM | > 100 µM | > 100 µM | > 100 µM | > 100 µM | > 100 µM | > 100 µM | > 100 µM | > 100 µM
CCOC(=O)c1nc2ccc(C(F)(F)F)cc2nc1Oc1ccc(OC)cc1 | > 100 µM | > 100 µM | > 100 µM | > 100 µM | > 100 µM | > 100 µM | > 100 µM | > 100 µM | > 100 µM | > 100 µM
COc1ccc(OC)c(/C=C2/C(=O)N=C(NC(C)=O)N2C)c1 | > 100 µM | > 100 µM | > 100 µM | > 100 µM | > 100 µM | > 100 µM | > 100 µM | > 100 µM | > 100 µM | > 100 µM
CCN(C(=O)N[C@@H](CC(C)C)C(=O)NCC(=O)OC)c1ccccc1 | > 100 µM | > 100 µM | > 100 µM | > 100 µM | > 100 µM | > 100 µM | > 100 µM | > 100 µM | > 100 µM | > 100 µM
C[C@H]1CCC/C=C/[C@@H]2C[C@H](OC(=O)CN(C)C)C[C@H]2[C@H](O)/C=C/C(=O)O1 | 0.0997 µM | 2.79 µM | > 33.8 µM | > 100 µM | 5.68 µM | 5.54 µM | 0.219 µM | > 30.9 µM | > 100 µM | 0.133 µM
